Source: patent publication US4372948A, “Derivative of saccharide and physiologically active agent containing the same” (Kureha Kagaku Kogyo Kabushiki Kaisha, priority 1980, dated 1983)

Tests used:
Sarcoma-180 = assay: Anti-tumour activity against Sarcoma-180; type: in vivo, mouse (ICR-JCL); conditions: Mus musculus, Sarcoma-180, po, 600 h, 10 times every other day, tumour weight on 25th day, read-out: Antitumour activity, inhibiting rate (I.R.)
Outline: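 ICR-JCL mice were given 1×10^6 Sarcoma-180 cells axillary; from 24 hours, compounds in saline were dosed orally at 500 mg/kg/time, 10 times every other day. Tumour nodes were weighed on day 25; inhibition rate = (1-T/C)×100(%) versus untreated tumour-bearing mice.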

in vivo = conditions: mouse, in vivo, po, mice, 7 days observation, read-out: LD50, acute oral toxicity
blood pressure = assay: Anti-hypertension activity (reduction of blood pressure); type: in vivo, rat (spontaneous hypertension); conditions: oral, 300 mg/kg
Outline: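 Spontaneously hypertensive rats dosed orally at 300 mg/kg in distilled water. Blood pressure measured at 3 and 6 h. Activity taken as change from the value just before dosing.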

carrageenin edema = assay: Anti-Carrageenin edema activity; type: in vivo, rat; conditions: Rattus norvegicus, po, 1000 mg/kg once, read-out: I.R. against carrageenin edema
Outline: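 Rats (10 per group) given compound orally once at 1000 mg/kg in distilled water, then 0.1 ml 1% carrageenin injected into right hind foot pad. Foot pad thickness measured at intervals; inhibition rate (%) = (1−T/C)×100 versus carrageenin-only animals.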

total cholesterol = assay: Anti-hyperlipemia activity, total cholesterol in blood; type: in vivo, rabbit (Japanese white male); conditions: oral, 300 mg/kg once; for Reduction of cholesterol level after 3 hrs.: negative = raising
Outline: (§1)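 Male Japanese white rabbits fed 1% cholesterol diet for 3 months received compound once orally at 300 mg/kg in water. Ear-vein blood: cholesterol by enzymatic method, beta-lipoprotein by colorimetry; values are change from predose at 3 or 6 h.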

[1] = system: pseudo-escaping reaction to tail pressure; assay: Analgetic activity against mechanical stimulation of pressure; type: in vivo, mouse (ICR female); conditions: oral, 1000 mg/kg
exudation = assay: Anti-exudation activity (air pouch, croton oil); type: in vivo, rat; conditions: Rattus norvegicus, po, 144 h, 5 days, read-out: I.R. against exudation
Outline: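 Rats, 6 per group, given subcutaneous dorsal air pouch injected with 0.5 ml sesame oil containing 1% croton oil. Compounds dosed orally in distilled water at 1000 mg/kg/day for five days; pouch exudate volume measured on day 6 and expressed as percent inhibition of exudation.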

[2] = system: pyrexia (Saccharomyces cerevisiae); assay: Anti-pyrexia activity (yeast-induced); type: in vivo; conditions: Rattus norvegicus, oral, read-out: Rate of inhibiting pyrexia (I.R.)
Outline: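 Rats (n=6/group) received subcutaneous 20% Saccharomyces cerevisiae suspension, fasted 10 h, then dosed orally with 1000 mg/kg compound in distilled water. Rectal temperature was tracked at set intervals and the lowest value taken; inhibition rate computed against non-yeast and yeast-only control temperatures.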

level of blood sugar = assay: Anti-hyperglycemia activity (reduction of blood sugar level); type: in vivo, rat (Wistar, streptozotocin); conditions: oral, 300 mg/kg
Outline: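 Streptozotocin-diabetic Wistar rats (60 mg/kg i.p., relapsed hyperglycemia after insulin) given compounds orally at 300 mg/kg in distilled water. Blood sugar measured in samples taken 3 and 6 h post-dose.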

acetic acid writhing = assay: Analgetic activity against chemical stimulation of acetic acid (writhing); type: in vivo, mouse (ICR female); conditions: Mus musculus, po, 30 min before 0.6% acetic acid, read-out: I.R. of writhing
Text: Rate of inhibition (I.R.) (%)=(1-T/C)×100
T represents the average number of writhing of the group of mice administered with the present compound and injected with acetic acid, and C represents the average number of writhing of the group of mice only injected with acetic acid (control).

beta-lipoprotein = assay: Anti-hyperlipemia activity, beta-lipoprotein in blood; type: in vivo, rabbit (Japanese white male); conditions: oral, 300 mg/kg once
Outline: as §1

cotton pellet granuloma = assay: Anti-granuloma activity (cotton pellet); type: in vivo, rat; conditions: Rattus norvegicus, po, 192 h, 7 days, read-out: I.R. against cotton pellet edema
Outline: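 Rats (6/group) implanted dorsally with two 30±1 mg cotton pellets; compounds given orally in distilled water at 1000 mg/kg/day once daily for 7 days. Granuloma excised on day 8 and dry weight measured; value is % inhibition of granuloma proliferation.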

SMILES | inhibition in vivo at 500 mg/kg (Sarcoma-180) [%] | LD50 at 168 h (in vivo) [mg/kg] | Reduced level of blood pressure after 3 hrs. (blood pressure) [mm Hg] | Reduced level of blood pressure after 6 hrs. (blood pressure) [mm Hg] | inhibition in vivo at 1000 mg/kg (carrageenin edema) [%] | Reduction of cholesterol level after 3 hrs. (total cholesterol) [mg/dL] | Reduction of cholesterol level after 6 hrs. (total cholesterol) [mg/dL] | Pseudo-escapting reaction pressure [1] [mmHg] | Pseudo-escapting reaction time [1] [s] | inhibition in vivo at 1000 mg/kg/day (exudation) [%] | inhibition in vivo at 1000 mg/kg [2] [%] | Reduced level of blood sugar after 3 hrs. (level of blood sugar) [mg/dL] | Reduced level of blood sugar after 6 hrs. (level of blood sugar) [mg/dL] | inhibition in vivo at 1000 mg/kg (acetic acid writhing) [%] | Reduction of beta-lipoprotein level after 3 hrs. (beta-lipoprotein) [mg/dL] | Reduction of beta-lipoprotein level after 6 hrs. (beta-lipoprotein) [mg/dL] | inhibition in vivo at 1000 mg/kg/day (cotton pellet granuloma) [%]
COC(=O)Cc1ccc(NC2O[C@@H](C)[C@H](O)[C@@H](O)[C@H]2O)cc1 (stereo partly drawn) [Compound 26, methyl p-aminophenylacetate-N-L-rhamnoside] | 45 | 11200 | 20 | 23 | 5.3 | -3 | 51 | 92 | 41 | 17.7 | 60 | 90 | 136 | 34 | 123 | 133 | 24.1
O=C(Oc1ccccc1)c1ccc(NC2O[C@H](CO)[C@@H](O[C@@H]3O[C@H](CO)[C@@H](O)[C@H](O)[C@H]3O)[C@H](O)[C@H]2O)cc1 (stereo partly drawn) [Compound 9, phenyl p-aminobenzoate-N-cellobioside] | 40 | > 15000 | 25 | 28 | 3.7 | -1 | 40 | 86 | 38 | 18.8 | 32 | 85 | 121 | 28 | 126 | 136 | 7.9
O=C(Oc1ccccc1)c1ccc(NC2OC[C@@H](O)[C@H](O)[C@H]2O)cc1 (stereo partly drawn) [Compound 8, phenyl p-aminobenzoate-N-D-xyloside] | 53 | 13500 | 18 | 20 | 21.4 | 6 | 46 | 80 | 39 | 15.7 | 47 | 106 | 140 | 20 | 128 | 144 | 5.6
O=C(Oc1ccccc1)c1ccc(NC2O[C@H](CO)[C@@H](O[C@H]3O[C@H](CO)[C@@H](O[C@H]4O[C@H](CO)[C@@H](O)[C@H](O)[C@H]4O)[C@H](O)[C@H]3O)[C@H](O)[C@H]2O)cc1 (stereo partly drawn) [Compound 10, phenyl p-aminobenzoate-N-maltotrioside] | 39 | 12400 | 18 | 18 | 6.6 | -5 | 33 | 86 | 36 | 7.5 | 41 | 99 | 106 | 30 | 106 | 111 | 19.6
O=C(OCc1ccccc1)c1ccc(NC2C[C@H](O)[C@H](O)CO2)cc1 (stereo partly drawn) [Compound 13, benzyl p-aminobenzoate-N-D-deoxyriboside] | 38 | 9200 | 20 | 21 | 7 | 4 | 35 | 82 | 40 | 23.5 | 39 | 108 | 113 | 24 | 135 | 144 | 4.2
NC(=O)c1cccc(NC2O[C@H](CO)[C@@H](O[C@@H]3O[C@H](CO)[C@@H](O)[C@H](O)[C@H]3O)[C@H](O)[C@H]2O)c1 (stereo partly drawn) [Compound 2, m-aminobenzoic acid amide-N-cellobioside] | 35 | > 15000 | 20 | 22 | 20.3 | 1 | 30 | 84 | 42 | 6.6 | 36 | 85 | 103 | 20 | 108 | 124 | 6.1
